Experimental data published in patent US7241803B2, “Compounds for inhibition of HIV infection by blocking HIV entry” (New York Blood Center, priority 2002, dated 2007).

What was measured:
HIV-1 RF (clade B, X4) = assay: infection by laboratory-adapted HIV-1 strain, p24 production; type: cell-based
Experimental: Assessment of anti-HIV-1 infectivity. The inhibitory activity of compounds on infection by laboratory-adapted HIV-1 strains was determined as previously described (18). In brief, 1×10^4 MT-2 cells were infected with HIV-1 at 100 TCID50 (50% tissue culture infective dose) in 200 μl of RPMI 1640 medium containing 10% FBS in the presence or absence of compounds at graded concentrations overnight. For the time-of-addition assay, compounds were added at various time post-infection. Then the culture supernatants were removed and fresh media were added. On the fourth day post-infection, 100 μl of culture supernatants were collected from each well, mixed with equal volumes of 5% Triton X-100 and assayed for p24 antigen, which was quantitated by ELISA (51). Briefly, the wells of polystyrene plates (Immulon 1B, Dynex Technology, Chantilly, Va.) were coated with HIV immunoglobulin (HIVIG), which was prepared from plasma of HIV-seropositive donors with high neutralizing titers against HIV-1IIIB as previously described (44) in 0.085 M carbonate-bicarbonate buffer (pH 9.6) at 4° C. overnight, followed by washes with PBS-T buffer (0.01M PBS containing 0.05% Tween-20) and blocking with PBS containing 1% dry fat-free milk (Bio-Rad Inc., Hercules, Calif.). Virus lysates were added to the wells and incubated at 37° C. for 1 h. […] Absorbance at 450 nm was recorded in an ELISA reader (Ultra 384, Tecan). […]

gp120-CD4 binding = target: T1, gp120-CD4 binding (Human immunodeficiency virus type 1 group M subtype B, UniProt P03375); parameters: species or system HIV-1; settings: 10 μg/ml
T1 construct: purchased Immunodiagnostics, Woburn, Mass; (gp120); Genentech Inc., South San Francisco, Calif; (sCD4)
Experimental: Inhibition of gp120 binding to CD4. Wells of polystyrene plates was coated with 100 μl of sheep anti-gp120 antibody D7324 (Cliniqa, Fallbrook, Calif.) at 2 μg/ml in carbonate buffer (pH 9.6) at 4° C. overnight and blocked with 1% dry fat-free milk in PBS at 37° C. for 1 h. One hundred microliters of recombinant gp120 molecule (Immunodiagnostics, Woburn, Mass.) at 0.5 μg/ml in PBS was added and incubated at 37° C. for 1 h, followed by three washes with PBS-T. Soluble CD4 (sCD4) at 0.25 μg/ml was added in the presence of a compound (25 μM) and incubated at 37° C. for 1 h. After three washes, rabbit anti-sCD4 IgG (0.25 μg/ml in PBS, 100 μl/well) was added and incubated at 37° C. for 1 h. Binding of rabbit anti-sCD4 IgG was determined by sequential addition of biotinylated goat-anti-rabbit IgG, SA-HRP, and TMB. After the reactions were terminated, absorbance at 450 nm was recorded in an ELISA reader (Tecan).
HIV-1 envelope glycoprotein gp120 was captured by the anti-gp120 antibody coated onto wells of polystyrene plates. […] After extensive washes, CD4 molecule bound to gp120 was quantitated by ELISA using anti-CD4 antibody.

[1] = tested on: HIV-1 RU570 (clade G, R5); settings: Primary RU570 (clade G, R5), PBMCs
Experimental: (§1) Inhibitory activity of compounds on infection by primary HIV-1 isolates was determined as previously described (41). PBMCs were isolated from the blood of healthy donors at the New York Blood Center by standard density gradient centrifugation using Histopaque-1077 (Sigma). The cells were plated in 75 cm^2 plastic flasks and incubated at 37° C. for 2 hrs. The nonadherent cells were collected and resuspended at 5×10^6 in 10 ml RPMI-1640 medium containing 10% FBS, 5 μg/ml PHA and 100 U/ml IL-2 (Sigma), followed by incubation at 37° C. for 3 days. The PHA-stimulated cells were infected with corresponding primary HIV-1 isolates at 0.01 multiplicity of infection (MOI) in the absence or presence of a compound at graded concentrations. Culture media were changed every 3 days. The supernatants were collected 7 days post-infection and tested for p24 antigen by ELISA as described above. The percent inhibition of p24 production and IC50 values were calculated as described above.

[2] = tested on: HIV-1 93BR020 (clade F, X4R5); settings: Primary 93BR020 (clade F, X4R5), PBMCs
Experimental: as §1

[3] = tested on: HIV-1 93TH051 (clade E, X4R5); settings: Primary 93TH051 (clade E, X4R5), PBMCs
Experimental: as §1

HIV-1IIIB = assay: time-of-addition assay; type: cell-based; settings: for time of addition at which HIV replication is inhibited: summary statement
Experimental: Assessment of anti-HIV-1 infectivity. […] Reactions were terminated by addition of 1N H2SO4.
MT-2 cells were incubated with HIV-1IIIB at 37° C. for 0, 1, 2, 3, 4, 6, and 8 hrs, respectively, before addition of the test compounds at 10 μg/ml. AZT (2.5 μM) was used as a control. After culture for another 2 hrs, the cells were washed to remove the free virus and compounds. The supernatants were collected on day 4 post-infection for measurement of p24 production.

[4] = 10 μg/ml added one hour or longer after virus
[5] = 10 μg/ml added to the cells with virus together

Compound	IC50 (μg/ml) for inhibition of p24 production (HIV-1 RF (clade B, X4)) [µg/mL]	inhibition of gp120-CD4 binding (gp120-CD4 binding)	IC50 (μg/ml) for inhibition of p24 production [1] [µg/mL]	IC50 (μg/ml) for inhibition of p24 production [2] [µg/mL]	IC50 (μg/ml) for inhibition of p24 production [3] [µg/mL]	inhibition of HIV-1 replication, time of addition (HIV-1IIIB; [4])	inhibition of HIV-1 replication, time of addition (HIV-1IIIB; [5])	time of addition at which HIV replication is inhibited (HIV-1IIIB)
Cc1ccc(C)n1-c1ccc(C(=O)O)c(O)c1 [NB-2]	0.45 ± 0.04	did not significantly inhibited	23.12 ± 1.23	2.50 ± 0.01	1.15 ± 0.14	no inhibitory activity	inhibited HIV-1 replication	only when they were added to the cells less than two hours after virus addition
O=C(O)c1cc(-n2cccc2)ccc1Cl [NB-64]	0.96 ± 0.03	did not significantly inhibited	8.81 ± 0.24	1.05 ± 0.18	5.24 ± 1.80	no inhibitory activity	inhibited HIV-1 replication	only when they were added to the cells less than two hours after virus addition
